Measurements taken from patent US11186548B2 (priority 2017, dated 2021).
Entries after “also recorded” stand apart in the source; their conditions may differ. Read-outs that look alike come from different tables or passages of the source.

What was measured:
CYP3A4 = CYP3A4 (Homo sapiens, UniProt P08684); experiment: biochemical
[1] = Human plasma stability assay
hERG channel = hERG channel (Homo sapiens, UniProt Q12809); experiment: hERG channel patch clamp assay
in vivo [2] = settings: male, guinea pig
human AChE = human AChE (Homo sapiens, UniProt P22303); format: biochemical
[3] = Parallel Artificial Membrane Permeability Assay (PAMPA); settings: about 100 μM, five hours, 25° C.
[4] = Microsomal stability assay; settings: microsomes
[5] = guinea pig, in vivo; for percentage of the administered dose in the brain / LogBB / brain concentration / plasma concentration: male; for LogBB / brain concentration / plasma concentration: iv
[6] = male, guinea pig, in vivo
in vivo [7] = settings: male, guinea pig, iv
CYP2C19 = CYP2C19 (Homo sapiens, UniProt P33261); experiment: Cytochrome P450 inhibition with fluorescent probe substrate
MDR1 (P-gp) = MDR1 (P-gp) (Homo sapiens, UniProt P08183); experiment: MDR1-MDCK efflux assay (net flux ratio); settings: 37° C., three hours
Chain of MDR1 (P-gp) (P08183 whole entry): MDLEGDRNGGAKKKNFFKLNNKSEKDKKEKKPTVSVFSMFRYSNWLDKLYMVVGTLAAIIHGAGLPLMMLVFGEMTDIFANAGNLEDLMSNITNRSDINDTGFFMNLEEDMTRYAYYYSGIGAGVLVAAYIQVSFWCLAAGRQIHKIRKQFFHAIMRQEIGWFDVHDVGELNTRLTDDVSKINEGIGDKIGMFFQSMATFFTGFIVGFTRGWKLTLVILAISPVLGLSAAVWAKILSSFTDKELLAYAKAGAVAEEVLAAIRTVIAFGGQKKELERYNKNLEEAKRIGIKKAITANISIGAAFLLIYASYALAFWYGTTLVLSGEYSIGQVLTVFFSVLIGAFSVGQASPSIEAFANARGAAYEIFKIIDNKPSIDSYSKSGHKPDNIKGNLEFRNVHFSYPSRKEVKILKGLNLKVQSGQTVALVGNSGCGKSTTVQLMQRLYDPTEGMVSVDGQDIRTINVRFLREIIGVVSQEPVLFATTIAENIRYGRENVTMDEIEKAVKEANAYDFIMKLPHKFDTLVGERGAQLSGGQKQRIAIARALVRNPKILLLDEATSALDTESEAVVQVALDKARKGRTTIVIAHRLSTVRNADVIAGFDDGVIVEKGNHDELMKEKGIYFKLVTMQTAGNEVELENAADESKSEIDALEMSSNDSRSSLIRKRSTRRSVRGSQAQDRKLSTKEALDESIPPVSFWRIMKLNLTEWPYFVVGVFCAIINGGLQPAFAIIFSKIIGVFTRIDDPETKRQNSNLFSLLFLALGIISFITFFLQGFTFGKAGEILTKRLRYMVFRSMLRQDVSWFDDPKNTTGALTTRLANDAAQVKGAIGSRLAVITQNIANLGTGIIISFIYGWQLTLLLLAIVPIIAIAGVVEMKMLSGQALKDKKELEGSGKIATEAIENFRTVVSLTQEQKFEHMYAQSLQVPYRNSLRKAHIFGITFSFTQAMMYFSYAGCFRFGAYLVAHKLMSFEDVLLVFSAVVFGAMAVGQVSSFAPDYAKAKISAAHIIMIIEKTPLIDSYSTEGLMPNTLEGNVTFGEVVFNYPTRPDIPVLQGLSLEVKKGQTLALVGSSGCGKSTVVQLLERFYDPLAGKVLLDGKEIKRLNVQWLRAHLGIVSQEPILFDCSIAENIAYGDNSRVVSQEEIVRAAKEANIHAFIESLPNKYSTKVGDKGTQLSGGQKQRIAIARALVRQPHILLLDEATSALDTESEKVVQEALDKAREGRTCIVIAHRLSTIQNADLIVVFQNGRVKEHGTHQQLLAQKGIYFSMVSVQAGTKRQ

Chain of human AChE (P22303-2 with tags, fused parts or gaps limits assumed): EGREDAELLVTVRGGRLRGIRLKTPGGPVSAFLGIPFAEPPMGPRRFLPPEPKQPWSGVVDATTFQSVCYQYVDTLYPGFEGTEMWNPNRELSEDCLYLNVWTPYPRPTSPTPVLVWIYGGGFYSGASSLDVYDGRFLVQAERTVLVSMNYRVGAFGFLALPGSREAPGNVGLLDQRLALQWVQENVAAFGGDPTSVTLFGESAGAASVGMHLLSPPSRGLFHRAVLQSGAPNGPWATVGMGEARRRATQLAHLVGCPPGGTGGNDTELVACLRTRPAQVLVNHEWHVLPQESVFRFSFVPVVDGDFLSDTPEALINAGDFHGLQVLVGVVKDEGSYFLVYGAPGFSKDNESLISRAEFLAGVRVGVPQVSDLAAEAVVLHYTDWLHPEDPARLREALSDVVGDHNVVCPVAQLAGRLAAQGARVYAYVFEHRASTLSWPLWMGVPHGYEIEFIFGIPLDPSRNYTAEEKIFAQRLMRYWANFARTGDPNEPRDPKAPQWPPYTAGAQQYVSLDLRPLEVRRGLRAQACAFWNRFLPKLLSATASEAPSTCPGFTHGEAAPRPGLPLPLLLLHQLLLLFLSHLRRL
Chain of CYP3A4 (P08684 whole entry): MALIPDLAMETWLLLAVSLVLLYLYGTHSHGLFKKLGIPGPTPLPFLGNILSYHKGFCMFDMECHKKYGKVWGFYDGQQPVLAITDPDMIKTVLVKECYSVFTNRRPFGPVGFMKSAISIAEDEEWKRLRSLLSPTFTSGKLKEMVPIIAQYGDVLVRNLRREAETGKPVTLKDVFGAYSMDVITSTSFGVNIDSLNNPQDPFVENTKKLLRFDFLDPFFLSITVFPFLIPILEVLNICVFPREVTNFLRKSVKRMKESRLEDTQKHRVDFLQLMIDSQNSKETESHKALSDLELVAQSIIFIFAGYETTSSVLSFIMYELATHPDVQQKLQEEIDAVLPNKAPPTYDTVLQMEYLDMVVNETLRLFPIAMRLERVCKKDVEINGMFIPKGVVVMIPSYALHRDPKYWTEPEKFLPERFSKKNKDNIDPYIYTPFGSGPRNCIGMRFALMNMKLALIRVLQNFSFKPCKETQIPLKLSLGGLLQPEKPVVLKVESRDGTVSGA
Chain of CYP2C19 (P33261 whole entry): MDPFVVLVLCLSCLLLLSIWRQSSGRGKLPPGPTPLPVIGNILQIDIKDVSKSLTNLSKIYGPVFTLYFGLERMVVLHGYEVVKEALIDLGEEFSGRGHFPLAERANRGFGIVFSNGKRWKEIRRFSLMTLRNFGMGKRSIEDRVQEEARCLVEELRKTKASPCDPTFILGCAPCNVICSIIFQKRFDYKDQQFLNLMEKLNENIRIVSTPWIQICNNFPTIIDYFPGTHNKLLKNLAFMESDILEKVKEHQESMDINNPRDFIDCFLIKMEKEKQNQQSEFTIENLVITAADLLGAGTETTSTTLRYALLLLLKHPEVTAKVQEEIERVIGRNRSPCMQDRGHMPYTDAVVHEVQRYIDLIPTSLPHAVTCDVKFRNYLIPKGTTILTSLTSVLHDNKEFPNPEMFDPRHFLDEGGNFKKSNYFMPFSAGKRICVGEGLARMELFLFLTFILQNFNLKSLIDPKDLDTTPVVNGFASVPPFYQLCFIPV
Chain of hERG channel (Q12809 whole entry): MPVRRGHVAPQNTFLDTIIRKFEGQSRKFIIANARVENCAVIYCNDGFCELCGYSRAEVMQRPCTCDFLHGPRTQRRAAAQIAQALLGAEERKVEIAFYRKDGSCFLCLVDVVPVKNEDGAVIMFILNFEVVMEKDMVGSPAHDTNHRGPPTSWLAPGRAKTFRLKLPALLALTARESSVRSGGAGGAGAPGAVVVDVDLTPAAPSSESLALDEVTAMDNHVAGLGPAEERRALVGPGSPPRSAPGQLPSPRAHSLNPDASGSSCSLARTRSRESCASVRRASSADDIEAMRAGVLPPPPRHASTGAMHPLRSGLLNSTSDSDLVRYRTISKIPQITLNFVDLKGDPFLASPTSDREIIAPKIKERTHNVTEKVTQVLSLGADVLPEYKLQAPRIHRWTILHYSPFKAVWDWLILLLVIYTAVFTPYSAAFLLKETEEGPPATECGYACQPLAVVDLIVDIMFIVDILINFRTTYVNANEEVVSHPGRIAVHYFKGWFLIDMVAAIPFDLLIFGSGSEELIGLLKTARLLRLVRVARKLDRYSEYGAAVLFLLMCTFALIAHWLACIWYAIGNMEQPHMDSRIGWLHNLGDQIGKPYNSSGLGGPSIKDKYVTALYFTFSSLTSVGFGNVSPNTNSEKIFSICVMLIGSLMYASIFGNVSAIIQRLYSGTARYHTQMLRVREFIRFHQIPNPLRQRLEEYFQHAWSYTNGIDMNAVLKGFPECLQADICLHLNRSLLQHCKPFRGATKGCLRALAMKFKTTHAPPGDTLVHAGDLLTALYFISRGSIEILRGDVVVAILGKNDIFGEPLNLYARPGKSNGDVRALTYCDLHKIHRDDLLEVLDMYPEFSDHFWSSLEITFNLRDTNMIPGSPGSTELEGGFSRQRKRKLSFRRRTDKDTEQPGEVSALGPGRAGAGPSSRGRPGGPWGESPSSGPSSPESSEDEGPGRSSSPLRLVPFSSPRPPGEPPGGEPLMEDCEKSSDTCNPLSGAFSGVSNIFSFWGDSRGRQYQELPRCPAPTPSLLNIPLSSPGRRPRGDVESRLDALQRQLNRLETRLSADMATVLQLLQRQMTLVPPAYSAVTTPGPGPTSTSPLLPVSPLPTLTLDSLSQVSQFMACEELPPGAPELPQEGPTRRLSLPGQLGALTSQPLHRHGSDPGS

In the case of C[C@@H](CN1CCCc2ccccc2C1)NC(=O)/C=N/O [LLNL-02], the IC50 (CYP3A4) is reported as greater than 10 µM, the “human plasma stability (percent remaining after 1 hour)” value ([1]; human plasma, 1 hour at 37° C.) is reported as “over 90%” and the “degradation in human plasma” value ([1]; one hour) is reported as less than 10%. The “concentration not toxic to the hERG channel” value (hERG channel) was greater than 10 µM, the Cmax (in vivo [2]) was 1420 to 10000 ng/g and the “fraction of AChE reactivated at 30 minutes, methylated versus des-methyl analog” value (human AChE) was “significantly lower reactivation relative to the des-methyl counterpart”. For the same compound, the “reactivation of adducted AChE relative to the 2-PAM standard of care” value (human AChE) was “approximately 40%”, the PAMPA permeability [3] was “high permeability through the BBB; also recorded: high permeability comparable to that of the highly permeable positive control compound, diazepam; also recorded: elevated permeability relative to other selected compounds; also recorded: superior permeation relative to LLNL-03” and the half-life [4] was greater than 60 min. The microsomal CLint [4] was less than 23 µL/min/mg, the “time of Cmax in the brain” value [5] was 5 min and the “percentage of the administered dose in the brain” value (“percentage” for short) [5] was 0.3-0.7%. The “percentage” value ([5]; 1 mg/kg) was 0.3%, the “percentage” value ([5]; 5 mg/kg) was 0.3% and the “percentage” value ([5]; 20 mg/kg) was 0.7%. The LogBB ([5]; 1 mg/kg) was −0.879, the brain concentration ([5]; 1 mg/kg) was 0.191 µg/g and the plasma concentration ([5]; 1 mg/kg) was 1.443 µg/g. It also gave a LogBB ([5]; 5 mg/kg) of −0.649, a brain concentration ([5]; 5 mg/kg) of 1.421 µg/g and a plasma concentration ([5]; 5 mg/kg) of 6.352 µg/g. The LogBB ([5]; 10 mg/kg) was −0.311, the brain concentration ([5]; 10 mg/kg) was 5.269 µg/g and the plasma concentration ([5]; 10 mg/kg) was 10.790 µg/g. The LogBB ([5]; 20 mg/kg) was −0.276, the brain concentration ([5]; 20 mg/kg) was 10.048 µg/g and the plasma concentration ([5]; 20 mg/kg) was 19.009 µg/g. The “increase in mean AUC0-t” value [6] was 2.5 fold, the AUC0-t ([6]; iv, 10 mg/kg) was 28480 ng·h/mL and the T½ elim. ([6]; iv, 10 mg/kg) was 606.6 min. For the same compound, the “Vd (area)” value ([6]; iv, 10 mg/kg) was 6.32268 L/kg, the half-life (in vivo [7]; 1 mg/kg, T½ dist.) was 23.4 min and the half-life (in vivo [7]; 5 mg/kg, T½ dist.) was 24 min. It also gave an AUC(0-inf) (in vivo [7]; 10 mg/kg) of 73400 ng·h/mL, an AUC0-t (in vivo [7]; 10 mg/kg, AUC0-t) of 28400 ng·h/mL and a half-life (in vivo [7]; 10 mg/kg, T½ dist.) of 15 min. For the same compound, the half-life (in vivo [7]; 10 mg/kg, T½ elim.) was 606 min, the Vd (in vivo [7]; 10 mg/kg, Vd (area)) was 6.32 L/kg and the half-life (in vivo [7]; 20 mg/kg, T½ dist.) was 23.4 min. For the same compound, the Vd (in vivo [7]; 20 mg/kg, apparent volume of distribution (Vd)) was 3.75 to 6.32 L/kg, the half-life (in vivo [7]; 20 mg/kg, mean apparent distribution half-life (t1/2α)) was 15 to 24 min and the half-life (in vivo [7]; 20 mg/kg, terminal half-life (t1/2 β)) was 606 to 1130 min. The clearance (in vivo [7]; 20 mg/kg, total clearance from plasma (CL)) was 2.27 to 5.19 mL/min/kg, the IC50 (CYP2C19) was greater than 10 µM and the “MDR1 efflux substrate status from net flux ratio” value (MDR1 (P-gp)) was “may be a moderate efflux substrate; also recorded: moderate efflux substate”.
